Measured values taken from patent publication US9884818B2, “Sulphamoylpyrrolamide derivatives and the use thereof as medicaments for the treatment of hepatitis B” (Janssen Sciences Ireland UC, priority 2013, dated 2018).

Key:
[1] = tested on: HBV; experiment: Anti-HBV activity, HepG2.2.15 stable transfected cell line, HBV DNA from secreted virions by realtime PCR; assay type: cell-based; details: Hepatitis B virus, HepG2.2.15, 144 h, HepG2.2.15 cells, 6 days of treatment, HBV DNA from secreted virions; read-out: HepG2 2.15 EC50
[2] = tested on: HBV; experiment: Anti-HBV activity, HepG2.117 inducibly HBV producing cell line (Tet-off), intracellular HBV DNA by realtime PCR; assay type: cell-based; details: Hepatitis B virus, HepG2.117, 72 h, HepG2.117 cells, 3 days of treatment, intracellular HBV DNA; read-out: HepG2 117 EC50
[3] = Cytotoxicity in HepG2 cells, Resazurin viability assay; details: human, HepG2 cells, HepG2 4 days CC50 (μM), incubated for 4 days, Resazurin assay

## Cn1cc(S(=O)(=O)NC(C)(C)C)cc1C(=O)Nc1ccc(F)c(F)c1 [Compound 19, 4-(tert-butylsulfamoyl)-N-(3,4-difluorophenyl)-1-methyl-pyrrole-2-carboxamide]
[1]
  EC50: 0.06 µM
[2]
  EC50: 0.08 µM
[3]
  CC50 at 4 days: > 25 µM

## Cn1cc(S(=O)(=O)NC2(C)COC2)cc1C(=O)Nc1ccc(F)c(F)c1 [Compound 20, N-(3,4-difluorophenyl)-1-methyl-4-[(3-methyloxetan-3-yl)sulfamoyl]pyrrole-2-carboxamide]
[1]
  EC50: 0.07 µM
[2]
  EC50: 0.06 µM
[3]
  CC50 at 4 days: > 25 µM

## Cn1cc(S(=O)(=O)N[C@H]2CCOC2)cc1C(=O)Nc1ccc(F)c(F)c1 [Compound 21, N-(3,4-difluorophenyl)-1-methyl-4-[[(3S)-tetrahydrofuran-3-yl]-sulfamoyl]pyrrole-2-carboxamide]
[1]
  EC50: 0.22 µM
[2]
  EC50: 0.84 µM
[3]
  CC50 at 4 days: > 25 µM

## CC(C)NS(=O)(=O)c1cc(C(=O)Nc2ccc(F)c(F)c2)n(C)c1 [Compound 22, N-(3,4-difluorophenyl)-4-(isopropylsulfamoyl)-1-methyl-pyrrole-2-carboxamide]
[1]
  EC50: 0.08 µM
[2]
  EC50: 0.07 µM
[3]
  CC50 at 4 days: > 25 µM

## CC[C@@H](C)NS(=O)(=O)c1cc(C(=O)Nc2ccc(F)c(F)c2)n(C)c1 [Compound 23, N-(3,4-difluorophenyl)-1-methyl-4-[[(1R)-1-methylpropyl]sulfamoyl]pyrrole-2-carboxamide]
[1]
  EC50: 0.02 µM
[2]
  EC50: 0.13 µM
[3]
  CC50 at 4 days: > 25 µM

## C[C@H](CO)NS(=O)(=O)c1cc(C(=O)Nc2ccc(F)c(F)c2)n(C)c1 [Compound 24, N-(3,4-difluorophenyl)-4-[[(1R)-2-hydroxy-1-methyl-ethyl]sulfamoyl]-1-methyl-pyrrole-2-carboxamide]
[1]
  EC50: 0.2 µM
[2]
  EC50: 0.3 µM
[3]
  CC50 at 4 days: > 25 µM

## Cn1cc(S(=O)(=O)N[C@H]2C[C@@H](O)C2)cc1C(=O)Nc1ccc(F)c(F)c1 [Compound 25, N-(3,4-difluorophenyl)-4-[(3-hydroxycyclobutyl)sulfamoyl]-1-methyl-pyrrole-2-carboxamide]
[1]
  EC50: 0.34 µM
[2]
  EC50: 0.23 µM
[3]
  CC50 at 4 days: > 25 µM

## Cn1cc(S(=O)(=O)N[C@H]2CCOC2)cc1C(=O)Nc1cc(F)c(F)c(F)c1 [Compound 26, 1-methyl-[[(3S)-tetrahydrofuran-3-yl]sulfamoyl]-N-(3,4,5-trifluoro-phenyl)pyrrole-2-carboxamide]
[1]
  EC50: 0.14 µM
[2]
  EC50: 0.26 µM
[3]
  CC50 at 4 days: > 25 µM

## Cn1cc(S(=O)(=O)NC2(C)COC2)cc1C(=O)Nc1cc(F)c(F)c(F)c1 [Compound 27, 1-methyl-4-[(3-methyloxetan-3-yl)sulfamoyl]-N-(3,4,5-trifluorophenyl)pyrrole-2-carboxamide]
[1]
  EC50: 0.04 µM
[2]
  EC50: 0.06 µM
[3]
  CC50 at 4 days: > 25 µM

## Cn1cc(S(=O)(=O)NC2(C)COC2)cc1C(=O)Nc1cccc(C(F)(F)F)c1 [Compound 28, 1-methyl-4-[(3-methyloxetan-3-yl)sulfamoyl]-N-[3-(trifluoromethyl)-phenyl]pyrrole-2-carboxamide]
[1]
  EC50: 0.1 µM
[2]
  EC50: 0.14 µM
[3]
  CC50 at 4 days: > 25 µM

## CCn1cc(S(=O)(=O)NC(C)C)cc1C(=O)Nc1ccc(F)c(C)c1 [Compound 29, 1-ethyl-N-(4-fluoro-3-methyl-phenyl)-4-(isopropylsulfamoyl)pyrrole-2-carboxamide]
[1]
  EC50: 0.15 µM
[2]
  EC50: 0.21 µM
[3]
  CC50 at 4 days: > 25 µM

## CCn1cc(S(=O)(=O)N[C@H]2CCOC2)cc1C(=O)Nc1ccc(F)c(C)c1 [Compound 30, 1-ethyl-N-(4-fluoro-3-methyl-phenyl)-4-[[(3S)-tetrahydrofuran-3-yl]-sulfamoyl]pyrrole-2-carboxamide]
[1]
  EC50: 0.45 µM
[2]
  EC50: 0.33 µM
[3]
  CC50 at 4 days: > 25 µM

## Cc1cc(NC(=O)c2cc(S(=O)(=O)N[C@H]3CCOC3)cn2C)cc(C)c1F [Compound 31, N-(4-fluoro-3,5-dimethyl-phenyl)-1-methyl-4-[[(3S)-tetrahydrofuran-3-yl]-sulfamoyl]pyrrole-2-carboxamide]
[1]
  EC50: 0.13 µM
[2]
  EC50: 0.39 µM
[3]
  CC50 at 4 days: > 25 µM

## Cc1cc(F)cc(NC(=O)c2cc(S(=O)(=O)N[C@H]3CCOC3)cn2C)c1 [Compound 32, N-(3-fluoro-5-methyl-phenyl)-1-methyl-4-[[(3S)-tetrahydrofuran-3-yl]-sulfamoyl]pyrrole-2-carboxamide]
[1]
  EC50: 0.18 µM
[2]
  EC50: 0.34 µM
[3]
  CC50 at 4 days: > 25 µM

## Cc1cc(NC(=O)c2cc(S(=O)(=O)NC(C)C)cn2C)cc(F)c1F [Compound 33, N-(3,4-difluoro-5-methyl-phenyl)-4-(isopropylsulfamoyl)-1-methyl-pyrrole-2-carboxamide]
[1]
  EC50: 0.03 µM
[2]
  EC50: 0.04 µM
[3]
  CC50 at 4 days: > 25 µM

## CC[C@@H](C)NS(=O)(=O)c1cc(C(=O)Nc2cc(C)c(F)c(F)c2)n(C)c1 [Compound 34, N-(3,4-difluoro-5-methyl-phenyl)-1-methyl-4-[[(1R)-1-methylpropyl]-sulfamoyl]pyrrole-2-carboxamide]
[1]
  EC50: 0.03 µM
[2]
  EC50: < 0.02 µM
[3]
  CC50 at 4 days: > 25 µM

## Cc1cc(NC(=O)c2cc(S(=O)(=O)NC3(C)COC3)cn2C)cc(F)c1F [Compound 35, N-(3,4-difluoro-5-methyl-phenyl)-1-methyl-4-[(3-methyloxetan-3-yl)-sulfamoyl]pyrrole-2-carboxamide]
[1]
  EC50: 0.03 µM
[2]
  EC50: 0.02 µM
[3]
  CC50 at 4 days: > 25 µM

## Cc1cc(NC(=O)c2cc(S(=O)(=O)N[C@H](C)CO)cn2C)cc(F)c1F [Compound 36, N-(3,4-difluoro-5-methyl-phenyl)-4-[[(1R)-2-hydroxy-1-methyl-ethyl]-sulfamoyl]-1-methyl-pyrrole-2-carboxamide]
[1]
  EC50: 0.08 µM
[2]
  EC50: 0.04 µM
[3]
  CC50 at 4 days: > 25 µM

## Cc1cc(NC(=O)c2cc(S(=O)(=O)N[C@H]3CCOC3)cn2C)cc(F)c1F [Compound 37, N-(3,4-difluoro-5-methyl-phenyl)-1-methyl-4-[[(3S)-tetrahydrofuran-3-yl]-sulfamoyl]pyrrole-2-carboxamide]
[1]
  EC50: 0.73 µM
[2]
  EC50: 0.38 µM
[3]
  CC50 at 4 days: > 25 µM

## Cc1cc(NC(=O)c2cc(S(=O)(=O)NC(C)(C)C)cn2C)cc(F)c1F [Compound 38, 4-(tert-butylsulfamoyl)-N-(3,4-difluoro-5-methyl-phenyl)-1-methyl-pyrrole-2-carboxamide]
[1]
  EC50: 0.05 µM
[2]
  EC50: 0.02 µM
[3]
  CC50 at 4 days: > 25 µM

## Cn1cc(S(=O)(=O)NC2(C)COC2)cc1C(=O)Nc1ccc(F)c(C(F)F)c1 [Compound 39, N-[3-(difluoromethyl)-4-fluoro-phenyl]-1-methyl-4-[(3-methyloxetan-3-yl)sulfamoyl]pyrrole-2-carboxamide]
[1]
  EC50: 0.05 µM
[2]
  EC50: 0.04 µM
[3]
  CC50 at 4 days: > 25 µM

## C[C@H](CO)NS(=O)(=O)c1cc(C(=O)Nc2ccc(F)c(C(F)F)c2)n(C)c1 [Compound 40, N-[3-(difluoromethyl)-4-fluoro-phenyl]-4-[[(1R)-2-hydroxy-1-methyl-ethyl]sulfamoyl]-1-methyl-pyrrole-2-carboxamide]
[1]
  EC50: 0.2 µM
[2]
  EC50: 0.12 µM
[3]
  CC50 at 4 days: > 25 µM

## C[C@H](CO)NS(=O)(=O)c1cc(C(=O)Nc2ccc(F)c(C(F)(F)F)c2)n(C)c1 [Compound 41, N-[4-fluoro-3-(trifluoromethyl)phenyl]-4-[[(1R)-2-hydroxy-1-methyl-ethyl]sulfamoyl]-1-methyl-pyrrole-2-carboxamide]
[1]
  EC50: 0.52 µM
[2]
  EC50: 0.33 µM
[3]
  CC50 at 4 days: > 25 µM

## Cn1cc(S(=O)(=O)N[C@H]2CCOC2)cc1C(=O)Nc1ccc(F)c(C(F)(F)F)c1 [Compound 42, N-[4-fluoro-3-(trifluoromethyl)phenyl]-1-methyl-4-[[(3S)-tetrahydrofuran-3-yl]sulfamoyl]pyrrole-2-carboxamide]
[1]
  EC50: 0.54 µM
[2]
  EC50: 0.72 µM
[3]
  CC50 at 4 days: > 25 µM

## Cn1cc(S(=O)(=O)NC2(C)COC2)cc1C(=O)Nc1ccc(F)c(C(F)(F)F)c1 [Compound 43, N-[4-fluoro-3-(trifluoromethyl)phenyl]-1-methyl-4-[(3-methyloxetan-3-yl)-sulfamoyl]pyrrole-2-carboxamide]
[1]
  EC50: 0.11 µM
[2]
  EC50: 0.13 µM
[3]
  CC50 at 4 days: > 25 µM

## CC(C)NS(=O)(=O)c1cc(C(=O)Nc2ccc(F)c(C(F)(F)F)c2)n(C)c1 [Compound 44, N-[4-fluoro-3-(trifluoromethyl)phenyl]-4-(isopropylsulfamoyl)-1-methyl-pyrrole-2-carboxamide]
[1]
  EC50: 0.37 µM
[2]
  EC50: 0.26 µM
[3]
  CC50 at 4 days: > 25 µM

## Cn1cc(S(=O)(=O)NC2(C)COC2)cc1C(=O)Nc1cc(F)cc(C(F)(F)F)c1 [Compound 45, N-[3-fluoro-5-(trifluoromethyl)phenyl]-1-methyl-4-[(3-methyloxetan-3-yl)sulfamoyl]pyrrole-2-carboxamide]
[1]
  EC50: 0.32 µM
[2]
  EC50: 0.34 µM
[3]
  CC50 at 4 days: > 25 µM

## CC(C)NS(=O)(=O)c1cc(C(=O)Nc2cc(F)c(F)c(Br)c2)n(C)c1 [Compound 46, N-(3-bromo-4,5-difluoro-phenyl)-4-(isopropylsulfamoyl)-1-methyl-pyrrole-2-carboxamide]
[1]
  EC50: 0.12 µM
[2]
  EC50: 0.17 µM
[3]
  CC50 at 4 days: > 25 µM

## CC[C@@H](C)NS(=O)(=O)c1cc(C(=O)Nc2cc(F)c(F)c(Br)c2)n(C)c1 [Compound 47, N-(3-bromo-4,5-difluoro-phenyl)-1-methyl-4-[[(1R)-1-methylpropyl]-sulfamoyl]pyrrole-2-carboxamide]
[1]
  EC50: 0.1 µM
[2]
  EC50: 0.1 µM
[3]
  CC50 at 4 days: > 25 µM

## Cn1cc(S(=O)(=O)NC2(C)COC2)cc1C(=O)Nc1cc(F)c(F)c(Br)c1 [Compound 48, N-(3-bromo-4,5-difluoro-phenyl)-1-methyl-4-[(3-methyloxetan-3-yl)-sulfamoyl]pyrrole-2-carboxamide]
[1]
  EC50: 0.05 µM
[2]
  EC50: 0.06 µM
[3]
  CC50 at 4 days: > 25 µM
